Laboratory results taken from patent publication US5134235A, “Process for separating folinic acid” (Eprova A.G., priority 1987, dated 1992).
Read-outs that look alike come from different tables or passages of the source. One block for each compound: values may come before it.

Experiments:
Solubility in water = assay type: physicochemical; details: for solubility: water; for solubility in water (in words): qualitative
[1] = cited: J. A. Straw et al, Cancer Research 44, 3114 (1984); cited from earlier work
[2] = cited: J. A. Straw et al, Cancer Research 44, 3114 (1984); cited from earlier work; remark: listed apart in the source
[3] = Stability of folinic acid at higher pH during recrystallization; assay type: physicochemical; details: pH above the 8.5 to 12 range of the first recrystallization

Compound: Nc1nc(=O)c2c([nH]1)NC[C@H](CNc1ccc(C(=O)N[C@@H](CCC(=O)O)C(=O)O)cc1)N2C=O [Potassium-(6S)-folinate]
solubility in water (in words) (Solubility in water): readily soluble

Compound: Nc1nc(=O)c2c([nH]1)NC[C@H](CNc1ccc(C(=O)N[C@@H](CCC(=O)O)C(=O)O)cc1)N2C=O [(6S)-folinic acid, N-(5-formyl-(6S)-5,6,7,8-tetrahydro-pteroyl)-L-glutamic acid]
solubility in water (in words) (Solubility in water): barely soluble

Compound: Nc1nc2c(c(=O)[nH]1)N(C=O)[C@H](CNc1ccc(C(=O)N[C@@H](CCC(=O)O)C(=O)O)cc1)CN2 [5-CHO-(6R)-H4 PteGlu]
biochemical activity [1]: biochemically inactive
elimination through the urine [2]: slowly eliminated through the urine
metabolism [2]: barely metabolized

Results, then the compound that gave them:

strength of aqueous solution that can be formed (Solubility in water; at 20° C., aqueous solution): 0.95%
solubility (Solubility in water; at 40° C., read-out: Solubility in water): 15 mg/mL
Compound: Nc1nc(=O)c2c([nH]1)NC[C@H](CNc1ccc(C(=O)N[C@@H](CCC(=O)O)C(=O)O)cc1)N2C=O [calcium-(6S)-folinate, Calcium-(6S)-folinate]

solubility in water (in words) (Solubility in water): readily soluble
Compound: Nc1nc(=O)c2c([nH]1)NC[C@H](CNc1ccc(C(=O)N[C@@H](CCC(=O)O)C(=O)O)cc1)N2C=O [Sodium-(6S)-folinate]

stability at higher pH [3]: appreciably lower
Compound: Nc1nc2c(c(=O)[nH]1)N(C=O)C(CNc1ccc(C(=O)N[C@@H](CCC(=O)O)C(=O)O)cc1)CN2 (stereo partly drawn) [folinic acid, N-(5-formyl-(6R,S)-5,6,7,8-tetrahydro-pteroyl)-L-glutamic acid]

Solubility in water (Solubility in water; at 20° C.): 2.4 g/100 ml
solubility (Solubility in water; general statement in description, temperature not given, read-out: water solubility): > 20 mg/mL
Compound: Nc1nc(=O)c2c([nH]1)NC[C@H](CNc1ccc(C(=O)N[C@@H](CCC(=O)O)C(=O)O)cc1)N2C=O [magnesium-(6S)-folinate, Magnesium-(6S)-folinate]
